In ChEMBL document CHEMBL5236615, “Discovery of Novel N-Heterocyclic-Fused Deoxypodophyllotoxin Analogues as Tubulin Polymerization Inhibitors Targeting the Colchicine-Binding Site for Cancer Treatment” (J Med Chem, 2022):

Experiments:
[1] = Antitumor activity against paclitaxel-resistant human MCF7/TxR cells xenografted in Balb/c mouse assessed as tumor growth inhibition at 10 mg/kg, ip administered for every 2 days for 21 days; assay type: functional; details: 504 h, time 21 day, read-out: TGI
[2] = Toxicity in Balb/c mouse assessed as pathological changes in blood alanine aminotransferase level at 20 mg/kg, ip administered for every 2 days for 14 days; assay type: organism-based; details: in vivo, 336 h, time 14 day
[3] = Cardiotoxicity in Sprague-Dawley rat assessed as QT correction value at 10 to 60 mg/kg, iv measured upto 60 mins by electrocardiography; assay type: toxicity, organism-based; details: in vivo, 1 h, dose 10-60 mg/kg
[4] = Antitumor activity against paclitaxel-resistant human MCF7/TxR cells xenografted in Balb/c mouse assessed as tumor growth inhibition at 5 mg/kg, ip administered for every 2 days for 21 days; assay type: functional; details: read-out: TGI
[5] = Toxicity in Balb/c mouse assessed as pathological changes in blood creatinine level at 20 mg/kg, ip administered for every 2 days for 14 days; assay type: organism-based; details: in vivo, 336 h, time 14 day
[6] = target: Tubulin beta (Homo sapiens) (UniProt P68371+Q9H4B7+Q13509+P04350+Q3ZCM7+P07437+Q13885+Q9BVA1+Q9BUF5+A6NNZ2); assay: Binding affinity to beta-tubulin colchicine binding site in human MCF-7 cells assessed as inhibition of EBI-beta-tubulin adduct band formation preincubated for 2 hrs followed by EBI addition and measured after 1.5 hrs by EBI competition based Western blotting analysis; assay type: cell-based; details: MCF7, dose 0.2-25 µM, time 3.5 hrs

SMILES: COc1c(Cl)cc([C@@H]2c3cc4c(cc3C[C@H]3C(=O)NC(=O)N23)OCCO4)cc1Cl
- inhibition in vivo at 10 mg/kg [1]: 49.2%
- Activity [2]: Non-Toxic
- Activity [3]: Non-Toxic
- inhibition in vivo at 5 mg/kg [4]: 38.9%
- Activity [5]: Non-Toxic
- Activity [6]: Dose-Dependent Effect
